# Assay results as given in patent US20230365584A1, “HETEROCYCLIC PERICONDENSED CDC7 KINASE INHIBITORS FOR THE TREATMENT OF CANCER” (SCHRÖDINGER, INC., priority 2020, published 2023).
# Key:
# [1] = test system: phosphorylation of MCM2 S53 in colo205 cells; assay: Phosphorylated MCM2 MSD electrochemiluminescence assay; format: cell-based; conditions: Homo sapiens, COLO 205, 20 h incubation, read-out: pMCM2-S53 MSD Colo205 IC50
# Experimental: Phosphorylated MCM2 MSD Electrochemiluminescence Assay
# The effect of CDC7 inhibitors on cellular phosphorylation of the CDC7 substrate MCM2 was determined using the following protocol:
# A total of 40,000 colo205 cells in 100 uL culture medium (1640 medium+10% Fetal bovine serum+1% Penicillin-Streptomycin) were plated in 96-well cell culture plates and allowed to attach for 6 hours. 3-fold serial dilutions of test compounds were prepared in completed PBS at 25×final concentration and 4 uL of each were added to the cells and incubated for 20 hours at 37° C., 5% CO2. Each concentration was tested in duplicate. After the 20 h incubation, cells were washed with 150 uL PBS and lysed with 40 uL MSD lysis buffer (obtained from Meso Scale Diagnostics) supplied with 1×complete ULTRA cocktail inhibitor (obtained from Roche). To detect phosphorylation of MCM2 S53, 30 μL of capture antibody solution (obtained from Abnova, catalog number H00004171-MO1, 1:500) was added to each well of MULTI-ARRAY 96-well High Bind Plate, and incubated overnight. The antibody solution was removed, wells blocked with BSA solution and plates washed, followed by addition of 30 ul of cell lysate per well. After 2 h incubation, plates were washed. 30 μL of 1×detection antibody solution (obtained from Abcam, catalog number ab109133, 1:1000) was then added to each well and incubate for 1 hour. Plates were washed and 30 μL of 1×secondary antibody solution (obtained from MSD, catalog number R32AB-1, 1:5000) was added to each well and incubate for 1 hour. Plates were washed and 150 µL of 1×Read Buffer T was added to each well of the MSD plate. The electrochemiluminescence signal was measured on a MESO SECTOR S600 plate reader. The percentage of remaining phosphorylated MCM2 signal was calculated following the equation below.
# [formula] • HC (high control): Cells treated with DMSO • Cpds: Cells treated with test compounds • LC (low control): Cells treated with positive control CDC7 inhibitor
# [2] = target: Full length human CDC7 protein co-expressed with DBF4 (Homo sapiens (Human), UniProt O00311); assay: CDC7 kinase biochemical assay (ADP-Glo, PDKtide substrate); conditions: 0.1 nM CDC7/DBF4, 1 uM ATP, 10 uM PDKtide, 4 h
# Chain of Full length human CDC7 protein co-expressed with DBF4 (O00311 whole entry): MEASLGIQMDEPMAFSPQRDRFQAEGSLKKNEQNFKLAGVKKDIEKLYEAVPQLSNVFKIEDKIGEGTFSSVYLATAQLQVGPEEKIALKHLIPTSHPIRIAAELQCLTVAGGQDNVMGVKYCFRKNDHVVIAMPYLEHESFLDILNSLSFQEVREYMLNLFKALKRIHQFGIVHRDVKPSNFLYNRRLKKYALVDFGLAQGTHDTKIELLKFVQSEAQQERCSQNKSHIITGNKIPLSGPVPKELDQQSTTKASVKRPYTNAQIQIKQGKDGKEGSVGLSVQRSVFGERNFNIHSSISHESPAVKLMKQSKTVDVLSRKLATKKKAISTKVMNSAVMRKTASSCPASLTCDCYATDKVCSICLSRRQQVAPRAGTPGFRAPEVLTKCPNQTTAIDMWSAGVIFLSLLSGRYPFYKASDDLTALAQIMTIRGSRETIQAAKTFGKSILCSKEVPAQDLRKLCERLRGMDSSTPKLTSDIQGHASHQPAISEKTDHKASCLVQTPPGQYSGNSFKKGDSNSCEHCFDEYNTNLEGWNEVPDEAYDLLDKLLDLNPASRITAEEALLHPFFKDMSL
# Chain of Full length human CDC7 protein co-expressed with DBF4 (Q9UBU7 whole entry partner): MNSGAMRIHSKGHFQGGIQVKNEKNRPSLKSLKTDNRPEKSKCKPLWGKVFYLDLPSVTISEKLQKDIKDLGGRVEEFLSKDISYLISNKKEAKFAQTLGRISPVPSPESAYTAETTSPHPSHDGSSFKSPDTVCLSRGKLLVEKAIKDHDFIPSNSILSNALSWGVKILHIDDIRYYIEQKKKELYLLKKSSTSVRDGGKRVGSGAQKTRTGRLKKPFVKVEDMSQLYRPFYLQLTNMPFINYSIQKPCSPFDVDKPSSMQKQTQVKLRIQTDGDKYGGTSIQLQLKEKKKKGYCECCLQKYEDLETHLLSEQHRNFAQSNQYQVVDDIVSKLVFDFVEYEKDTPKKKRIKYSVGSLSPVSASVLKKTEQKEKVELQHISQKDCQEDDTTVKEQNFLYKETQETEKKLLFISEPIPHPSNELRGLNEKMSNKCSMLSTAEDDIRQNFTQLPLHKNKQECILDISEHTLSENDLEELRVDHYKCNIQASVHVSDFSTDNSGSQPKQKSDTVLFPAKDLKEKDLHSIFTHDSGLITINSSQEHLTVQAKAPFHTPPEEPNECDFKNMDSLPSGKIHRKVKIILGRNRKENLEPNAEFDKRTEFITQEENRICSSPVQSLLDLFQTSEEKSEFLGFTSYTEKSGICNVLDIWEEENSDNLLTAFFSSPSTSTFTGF
# Experimental: CDC7 Kinase Biochemical Assay Protocol:
# Full length human CDC7 protein co-expressed with DBF4 was purchased from SignalChem (China). CDC7 kinase activity was determined with PDKtide (SignalChem) as a substrate and by measuring ADP production using the ADP-Glo™ Kinase Assay kit (Promega) following the manufacturers instructions. The kinase reaction was performed using the following conditions: Buffer: 40 mM Tris pH 7.5, 20 mM MgCl2, 0.1 mg/ml BSA and 50 uM DTT. Final reaction mix contained 0.1 nM CDC7/DBF4, 1 uM ATP and 10 uM PDKtide. The kinase reaction time was 4 h. The ADP-Glo signal was measured using an EnVision plate reader (PerkinELmer).
# Percent inhibition of CDC7 kinase activity was calculated based on the following formula:
# [formula] • Ssample: the signal of compounds • SHigh Ctrl: the signal of high control (DMSO) • SLow Ctrl: the signal of low control (positive control CDC7 inhibitor)
IC50 [1] [µM],IC50 [2] [µM],SMILES
0.1 to 1,< 0.001,"Cc1[nH]c(=O)c2sc(-c3ccncc3)c3c2c1C[C@@H](C)O3 (single isomer, unassigned) [Example 7]"
0.1 to 1,< 0.001,"Cc1[nH]c(=O)c2sc(-c3ccncc3)c3c2c1C[C@H](C)O3 (single isomer, unassigned) [Example 8]"
< 0.1,< 0.001,"C[C@@H](c1[nH]c(=O)c2sc(-c3cn[nH]c3)c3c2c1CCCO3)N1CCC1 (single isomer, unassigned) [Example 30]"
< 0.1,< 0.001,"C[C@H](c1[nH]c(=O)c2sc(-c3cn[nH]c3)c3c2c1CCCO3)N1CCC1 (single isomer, unassigned) [Example 31]"
0.1 to 1,< 0.001,"C[C@H](c1[nH]c(=O)c2sc(-c3cn[nH]c3)c3c2c1CCCO3)n1cccn1 (single isomer, unassigned) [Example 46]"
< 0.1,< 0.001,"C[C@@H](c1[nH]c(=O)c2sc(-c3cn[nH]c3)c3c2c1CCCO3)n1cccn1 (single isomer, unassigned) [Example 47]"
< 0.1,< 0.001,"CC[C@](C)(O)c1[nH]c(=O)c2sc(-c3cn[nH]c3)c3c2c1CCCO3 (single isomer, unassigned) [Example 57]"
< 0.1,< 0.001,"CC[C@@](C)(O)c1[nH]c(=O)c2sc(-c3cn[nH]c3)c3c2c1CCCO3 (single isomer, unassigned) [Example 58]"
0.1 to 1,< 0.001,"Cc1[nH]c(=O)c2sc(-c3ccncc3)c3c2c1CCCO3 [Example 1, 5-methyl-1-(pyridin-4-yl)-4,6,7,8-tetrahydro-3H-9-oxa-2-thia-4-azabenzo[cd]azulen-3-one]"
< 0.1,< 0.001,"Cc1[nH]c(=O)c2sc(-c3cn[nH]c3)c3c2c1CCCO3 [Example 5, 5-methyl-1-(1H-pyrazol-4-yl)-4,6,7,8-tetrahydro-3H-9-oxa-2-thia-4-azabenzo[cd]azulen-3-one]"
< 0.1,< 0.001,"O=c1[nH]c(CN2CCC2)c2c3c(c(-c4cn[nH]c4)sc13)OCCC2 [Example 13, 5-(azetidin-1-ylmethyl)-1-(1H-pyrazol-4-yl)-4,6,7,8-tetrahydro-3H-9-oxa-2-thia-4-azabenzo[cd]azulen-3-one]"
0.1 to 1,< 0.001,"CC(C)NCc1[nH]c(=O)c2sc(-c3cn[nH]c3)c3c2c1CCCO3 [Example 24, 5-((isopropylamino)methyl)-1-(1H-pyrazol-4-yl)-4,6,7,8-tetrahydro-3H-9-oxa-2-thia-4-azabenzo[cd]azulen-3-one]"
< 0.1,< 0.001,"CC(C)(O)c1[nH]c(=O)c2sc(-c3cn[nH]c3)c3c2c1CCCO3 [Example 28, 5-(2-hydroxypropan-2-yl)-1-(1H-pyrazol-4-yl)-4,6,7,8-tetrahydro-3H-9-oxa-2-thia-4-azabenzo[cd]azulen-3-one]"
< 0.1,< 0.001,"O=c1[nH]c(CN2CCC2)c2c3c(c(-c4cn[nH]c4)sc13)OCC(F)(F)C2 [Example 44, 7-(azetidin-1-ylmethyl)-10,10-difluoro-2-(1H-pyrazol-4-yl)-12-oxa-3-thia-6-azatricyclo[6.4.1.0^4,13]trideca-1,4(13),7-trien-5-one]"
≥ 1,0.001 to 0.01,"O=C(c1[nH]c(=O)c2sc(-c3cn[nH]c3)c3c2c1CCCO3)N1CCCC1 [Example 51, 2-(1H-pyrazol-4-yl)-7-(pyrrolidine-1-carbonyl)-12-oxa-3-thia-6-azatricyclo[6.4.1.0^4,13]-trideca-1,4(13),7-trien-5-one]"
≥ 1,< 0.001,"Nc1[nH]c(=O)c2sc(-c3cn[nH]c3)c3c2c1CCCO3 [Example 54, 7-amino-2-(1H-pyrazol-4-yl)-12-oxa-3-thia-6-azatricyclo[6.4.1.0^4,13]trideca-1,4(13),7-trien-5-one]"

SMILES,IC50 [1] [µM],IC50 [2] [µM]
"O=c1[nH]c(COC2CCC2)c2c3c(c(-c4cn[nH]c4)sc13)OCCC2 [Example 55, 5-(cyclobutoxymethyl)-1-(1H-pyrazol-4-yl)-4,6,7,8-tetrahydro-3H-9-oxa-2-thia-4-azaben-zo[cd]azulen-3-one]",< 0.1,< 0.001
